Measurements from ChEMBL document CHEMBL4680085 (J Med Chem, 2016).
Activity calls are given as the source filed them. The calls are words filed in the database; no cut-off is given here.

tested on: not listed separately; assay: Ratio of antioxidant activity of melatonin to antioxidant activity of test compound assessed as AAPH radical scavenging activity incubated for 15 mins by ORAC-FL method relative to Trolox; type: functional; conditions: not given

Compound	Ratio
COc1ccc2nc3c(c(NCCCCCCCN(CC(=O)NCCc4c[nH]c5ccc(OC)cc45)C(=O)/C=C/c4ccc(O)c(OC)c4)c2c1)CCCC3	3.96

molecular target: T1, Nuclear factor erythroid 2-related factor 2 (Homo sapiens) (UniProt Q16236); assay: Activation of NRF2 in human MCF-7/AREc32 cells at 3 uM incubated for 24 hrs by luciferase reporter gene assay; type: cell-based; conditions: MCF7, filed as activator
T1 sequence (whole entry): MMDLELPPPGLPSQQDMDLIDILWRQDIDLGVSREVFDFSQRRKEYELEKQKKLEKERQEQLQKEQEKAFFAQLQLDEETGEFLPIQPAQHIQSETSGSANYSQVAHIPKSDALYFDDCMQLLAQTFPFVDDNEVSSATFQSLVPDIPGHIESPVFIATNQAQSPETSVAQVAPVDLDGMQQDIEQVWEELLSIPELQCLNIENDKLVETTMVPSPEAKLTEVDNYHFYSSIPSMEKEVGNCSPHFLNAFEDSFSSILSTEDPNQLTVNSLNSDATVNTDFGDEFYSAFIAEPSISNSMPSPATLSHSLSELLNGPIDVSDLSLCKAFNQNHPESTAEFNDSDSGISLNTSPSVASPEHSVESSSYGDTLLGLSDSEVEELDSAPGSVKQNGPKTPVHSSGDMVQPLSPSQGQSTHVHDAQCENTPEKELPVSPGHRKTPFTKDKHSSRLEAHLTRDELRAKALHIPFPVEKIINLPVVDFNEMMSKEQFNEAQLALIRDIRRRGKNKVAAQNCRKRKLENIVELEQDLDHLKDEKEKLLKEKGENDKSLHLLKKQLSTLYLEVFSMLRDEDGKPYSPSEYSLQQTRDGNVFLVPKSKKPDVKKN

Compound	Activity
COc1ccc2nc3c(c(NCCCCCCCN(CC(=O)NCCc4c[nH]c5ccc(OC)cc45)C(=O)/C=C/c4ccc(O)c(OC)c4)c2c1)CCCC3	Active

tested on: SH-SY5Y; assay: Neuroprotection in human SH-SY5Y cells assessed as reduction in beta-amyloid peptide (1-42)-induced cell death at 3 uM incubated for 24 hrs by MTT assay; type: functional; design: scale not given: the % may be the effect or the level left; conditions: not given

Compound	Activity [%]
COc1ccc2nc3c(c(NCCCCCCCN(CC(=O)NCCc4c[nH]c5ccc(OC)cc45)C(=O)/C=C/c4ccc(O)c(OC)c4)c2c1)CCCC3	57.4

molecular target: T1, Nuclear factor erythroid 2-related factor 2 (Homo sapiens); assay: Activation of NRF2 in human MCF-7/AREc32 cells at 10 to 30 uM incubated for 24 hrs by luciferase reporter gene assay; type: cell-based; conditions: MCF7, filed as activator, dose 10-30 µM

Compound	Activity
COc1ccc2nc3c(c(NCCCCCCCN(CC(=O)NCCc4c[nH]c5ccc(OC)cc45)C(=O)/C=C/c4ccc(O)c(OC)c4)c2c1)CCCC3	Active

tested on: not listed separately; assay: Ratio of antioxidant activity of FA to antioxidant activity of test compound assessed as AAPH radical scavenging activity incubated for 15 mins by ORAC-FL method relative to Trolox; type: functional; conditions: not given

Compound	Ratio
COc1ccc2nc3c(c(NCCCCCCCN(CC(=O)NCCc4c[nH]c5ccc(OC)cc45)C(=O)/C=C/c4ccc(O)c(OC)c4)c2c1)CCCC3	2.43

molecular target: T2, Acetylcholinesterase (Homo sapiens, UniProt P22303); assay: Inhibition of AChE in human erythrocyte hemo-lyzates pre-incubated for 5 mins before addition of acetylthiocholine iodide substrate by Ellman's method; type: tissue-based; conditions: not given
T2 sequence (P22303 whole entry): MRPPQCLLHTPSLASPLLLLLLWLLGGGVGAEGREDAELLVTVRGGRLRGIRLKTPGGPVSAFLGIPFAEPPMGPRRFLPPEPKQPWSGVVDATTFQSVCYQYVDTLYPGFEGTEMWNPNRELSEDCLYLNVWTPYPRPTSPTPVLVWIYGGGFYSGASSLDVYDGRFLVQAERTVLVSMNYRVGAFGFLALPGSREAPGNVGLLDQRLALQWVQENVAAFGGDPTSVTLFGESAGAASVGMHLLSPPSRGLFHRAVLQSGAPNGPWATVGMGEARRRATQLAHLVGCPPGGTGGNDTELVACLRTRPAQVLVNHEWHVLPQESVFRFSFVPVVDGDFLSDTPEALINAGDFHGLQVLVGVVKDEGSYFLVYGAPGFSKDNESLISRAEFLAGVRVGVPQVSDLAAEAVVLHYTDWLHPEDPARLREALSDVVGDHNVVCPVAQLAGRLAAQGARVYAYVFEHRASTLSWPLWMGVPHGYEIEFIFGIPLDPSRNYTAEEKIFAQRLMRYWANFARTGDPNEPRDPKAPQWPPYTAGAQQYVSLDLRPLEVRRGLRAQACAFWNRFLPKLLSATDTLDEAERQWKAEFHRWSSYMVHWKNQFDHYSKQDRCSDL

Compound	IC50 [µM]
COc1ccc2nc3c(c(NCCCCCCCN(CC(=O)NCCc4c[nH]c5ccc(OC)cc45)C(=O)/C=C/c4ccc(O)c(OC)c4)c2c1)CCCC3	1.29

molecular target: Cholinesterase (Equus caballus, UniProt P81908); assay: not given; conditions: not given
Sequence (P81908 whole entry): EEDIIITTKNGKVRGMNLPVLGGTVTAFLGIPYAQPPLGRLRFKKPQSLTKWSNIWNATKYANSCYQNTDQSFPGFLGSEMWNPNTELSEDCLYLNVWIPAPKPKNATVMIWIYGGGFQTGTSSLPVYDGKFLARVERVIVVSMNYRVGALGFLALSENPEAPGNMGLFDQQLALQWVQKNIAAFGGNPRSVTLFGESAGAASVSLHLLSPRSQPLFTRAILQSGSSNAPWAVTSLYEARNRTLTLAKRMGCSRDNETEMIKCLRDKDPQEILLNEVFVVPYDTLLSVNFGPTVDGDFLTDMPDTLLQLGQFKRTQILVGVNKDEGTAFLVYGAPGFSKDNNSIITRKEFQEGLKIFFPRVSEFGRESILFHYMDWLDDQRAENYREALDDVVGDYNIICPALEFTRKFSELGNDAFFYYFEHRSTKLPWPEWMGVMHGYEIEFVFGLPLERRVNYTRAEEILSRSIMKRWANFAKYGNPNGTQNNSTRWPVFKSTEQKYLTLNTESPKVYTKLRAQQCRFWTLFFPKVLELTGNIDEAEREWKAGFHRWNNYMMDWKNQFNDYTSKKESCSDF

Compound	IC50 [µM]
COc1ccc2nc3c(c(NCCCCCCCN(CC(=O)NCCc4c[nH]c5ccc(OC)cc45)C(=O)/C=C/c4ccc(O)c(OC)c4)c2c1)CCCC3	0.00291

molecular target: T1, Nuclear factor erythroid 2-related factor 2 (Homo sapiens); assay: Activation of NRF2 in human MCF-7/AREc32 cells assessed as concentration required to double Nrf2 transcriptional pathway by measuring specific luciferase reporter activity incubated for 24 hrs by luciferase reporter gene assay; type: cell-based; conditions: MCF7, filed as activator

Compound	CD [µM]
COc1ccc2nc3c(c(NCCCCCCCN(CC(=O)NCCc4c[nH]c5ccc(OC)cc45)C(=O)/C=C/c4ccc(O)c(OC)c4)c2c1)CCCC3	6.31

tested on: not listed separately; assay: in vitro; conditions: human, HepG2 cells
Description: Toxicity in human HepG2 cells assessed as cell viability at 1000 uM by MTT assay relative to control

Compound	viability at 1000 µM [%]
COc1ccc2nc3c(c(NCCCCCCCN(CC(=O)NCCc4c[nH]c5ccc(OC)cc45)C(=O)/C=C/c4ccc(O)c(OC)c4)c2c1)CCCC3	68.7

molecular target: T3, Cholinesterase (Homo sapiens, UniProt P06276); assay: Competitive type inhibition of BuChE in human erythrocyte hemo-lyzates using […] substrate by Ellman's method based Lineweaver-Burk plot analysis; type: tissue-based; conditions: not given
T3 sequence (P06276 whole entry): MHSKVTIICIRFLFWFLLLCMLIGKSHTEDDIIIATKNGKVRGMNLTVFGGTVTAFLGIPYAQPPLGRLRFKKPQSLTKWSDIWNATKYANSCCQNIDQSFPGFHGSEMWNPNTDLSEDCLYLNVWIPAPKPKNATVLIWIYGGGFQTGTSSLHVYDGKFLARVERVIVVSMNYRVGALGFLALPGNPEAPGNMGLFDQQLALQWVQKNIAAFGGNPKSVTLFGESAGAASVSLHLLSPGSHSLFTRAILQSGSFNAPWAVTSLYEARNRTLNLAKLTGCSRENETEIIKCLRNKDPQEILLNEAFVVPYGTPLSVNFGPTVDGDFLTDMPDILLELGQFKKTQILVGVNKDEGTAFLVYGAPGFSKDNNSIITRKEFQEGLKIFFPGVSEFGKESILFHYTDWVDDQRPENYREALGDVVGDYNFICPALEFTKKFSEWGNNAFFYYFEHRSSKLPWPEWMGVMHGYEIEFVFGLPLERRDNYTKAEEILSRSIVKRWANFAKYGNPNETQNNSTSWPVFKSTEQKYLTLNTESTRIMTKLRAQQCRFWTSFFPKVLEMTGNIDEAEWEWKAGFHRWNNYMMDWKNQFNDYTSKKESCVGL

Compound	inhibition
COc1ccc2nc3c(c(NCCCCCCCN(CC(=O)NCCc4c[nH]c5ccc(OC)cc45)C(=O)/C=C/c4ccc(O)c(OC)c4)c2c1)CCCC3	Active

tested on: SH-SY5Y; assay: Neuroprotection in human SH-SY5Y cells assessed as reduction in Rotenone/Oligomycin A -induced cell death at 1 uM incubated for 24 hrs by MTT assay; type: functional; design: scale not given: the % may be the effect or the level left; conditions: not given

Compound	Activity [%]
COc1ccc2nc3c(c(NCCCCCCCN(CC(=O)NCCc4c[nH]c5ccc(OC)cc45)C(=O)/C=C/c4ccc(O)c(OC)c4)c2c1)CCCC3	33.7

tested on: SH-SY5Y; assay: Neuroprotection in human SH-SY5Y cells assessed as reduction in Rotenone/Oligomycin A -induced cell death at 3 uM incubated for 24 hrs by MTT assay; type: functional; design: scale not given: the % may be the effect or the level left; conditions: not given

Compound	Activity [%]
COc1ccc2nc3c(c(NCCCCCCCN(CC(=O)NCCc4c[nH]c5ccc(OC)cc45)C(=O)/C=C/c4ccc(O)c(OC)c4)c2c1)CCCC3	41.7

tested on: not listed separately; assay: in vitro; conditions: human, HepG2 cells; remark: another data set of the same source
Description: Toxicity in human HepG2 cells assessed as cell viability at 300 uM by MTT assay relative to control

Compound	viability at 300 µM [%]
COc1ccc2nc3c(c(NCCCCCCCN(CC(=O)NCCc4c[nH]c5ccc(OC)cc45)C(=O)/C=C/c4ccc(O)c(OC)c4)c2c1)CCCC3	69.9

tested on: not listed separately; assay: Ratio of antioxidant activity of LA to antioxidant activity of test compound assessed as AAPH radical scavenging activity incubated for 15 mins by ORAC-FL method relative to Trolox; type: functional; conditions: not given

Compound	Ratio
COc1ccc2nc3c(c(NCCCCCCCN(CC(=O)NCCc4c[nH]c5ccc(OC)cc45)C(=O)/C=C/c4ccc(O)c(OC)c4)c2c1)CCCC3	38

tested on: SH-SY5Y; assay: Neuroprotection in human SH-SY5Y cells assessed as reduction in beta-amyloid peptide (1-42)-induced cell death at 1 uM incubated for 24 hrs by MTT assay; type: functional; design: scale not given: the % may be the effect or the level left; conditions: not given

Compound	Activity [%]
COc1ccc2nc3c(c(NCCCCCCCN(CC(=O)NCCc4c[nH]c5ccc(OC)cc45)C(=O)/C=C/c4ccc(O)c(OC)c4)c2c1)CCCC3	81.4

tested on: SH-SY5Y; assay: Neuroprotection in human SH-SY5Y cells assessed as reduction in H2O2-induced cell death at 3 uM incubated for 24 hrs by MTT assay; type: functional; design: scale not given: the % may be the effect or the level left; conditions: not given

Compound	Activity [%]
COc1ccc2nc3c(c(NCCCCCCCN(CC(=O)NCCc4c[nH]c5ccc(OC)cc45)C(=O)/C=C/c4ccc(O)c(OC)c4)c2c1)CCCC3	30.9

tested on: not listed separately; assay: Effective permeability at 100 uM after 3 to 6 hrs by PAMPA assay; type: ADME; conditions: time 3-6 hrs, read-out: Peff

Compound	Papp at 100 µM [×10⁻⁶ cm/s]
COc1ccc2nc3c(c(NCCCCCCCN(CC(=O)NCCc4c[nH]c5ccc(OC)cc45)C(=O)/C=C/c4ccc(O)c(OC)c4)c2c1)CCCC3	4.2

molecular target: T3, Cholinesterase; assay: Inhibition of BuChE in human erythrocyte hemo-lyzates pre-incubated for 5 mins before addition of butyrylthiocholine iodide substrate by Ellman's method; type: tissue-based; conditions: not given

Compound	IC50 [µM]
COc1ccc2nc3c(c(NCCCCCCCN(CC(=O)NCCc4c[nH]c5ccc(OC)cc45)C(=O)/C=C/c4ccc(O)c(OC)c4)c2c1)CCCC3	0.234

tested on: SH-SY5Y; assay: Neuroprotection in human SH-SY5Y cells assessed as reduction in beta-amyloid peptide (1-40)-induced cell death at 3 uM incubated for 24 hrs by MTT assay; type: functional; design: scale not given: the % may be the effect or the level left; conditions: not given

Compound	Activity [%]
COc1ccc2nc3c(c(NCCCCCCCN(CC(=O)NCCc4c[nH]c5ccc(OC)cc45)C(=O)/C=C/c4ccc(O)c(OC)c4)c2c1)CCCC3	56.7

tested on: SH-SY5Y; assay: Neuroprotection in human SH-SY5Y cells assessed as reduction in H2O2-induced cell death at 1 uM incubated for 24 hrs by MTT assay; type: functional; design: scale not given: the % may be the effect or the level left; conditions: not given

Compound	Activity [%]
COc1ccc2nc3c(c(NCCCCCCCN(CC(=O)NCCc4c[nH]c5ccc(OC)cc45)C(=O)/C=C/c4ccc(O)c(OC)c4)c2c1)CCCC3	37.6

tested on: SH-SY5Y; assay: Neuroprotection in human SH-SY5Y cells assessed as reduction in beta-amyloid peptide (1-40)-induced cell death at 1 uM incubated for 24 hrs by MTT assay; type: functional; design: scale not given: the % may be the effect or the level left; conditions: not given

Compound	Activity [%]
COc1ccc2nc3c(c(NCCCCCCCN(CC(=O)NCCc4c[nH]c5ccc(OC)cc45)C(=O)/C=C/c4ccc(O)c(OC)c4)c2c1)CCCC3	70.6

molecular target: T2, Acetylcholinesterase; assay: Mixed type inhibition of AChE in human erythrocyte hemo-lyzates using acetylthiocholine iodide substrate by Ellman's method based Lineweaver-Burk plot analysis; type: tissue-based; conditions: not given

Compound	inhibition
COc1ccc2nc3c(c(NCCCCCCCN(CC(=O)NCCc4c[nH]c5ccc(OC)cc45)C(=O)/C=C/c4ccc(O)c(OC)c4)c2c1)CCCC3	Active

tested on: not listed separately; assay: in vitro; conditions: human, HepG2 cells; remark: another data set of the same source
Description: Toxicity in human HepG2 cells assessed as cell viability at 100 uM by MTT assay relative to control

Compound	viability at 100 µM [%]
COc1ccc2nc3c(c(NCCCCCCCN(CC(=O)NCCc4c[nH]c5ccc(OC)cc45)C(=O)/C=C/c4ccc(O)c(OC)c4)c2c1)CCCC3	84.7

molecular target: Acetylcholinesterase (Electrophorus electricus, UniProt O42275); assay: Inhibition of Electrophorus electricus AChE pre-incubated for 10 mins before addition of acetylthiocholine iodide substrate and further incubated for 15 mins by Ellman's method; conditions: not given
Sequence (O42275 whole entry): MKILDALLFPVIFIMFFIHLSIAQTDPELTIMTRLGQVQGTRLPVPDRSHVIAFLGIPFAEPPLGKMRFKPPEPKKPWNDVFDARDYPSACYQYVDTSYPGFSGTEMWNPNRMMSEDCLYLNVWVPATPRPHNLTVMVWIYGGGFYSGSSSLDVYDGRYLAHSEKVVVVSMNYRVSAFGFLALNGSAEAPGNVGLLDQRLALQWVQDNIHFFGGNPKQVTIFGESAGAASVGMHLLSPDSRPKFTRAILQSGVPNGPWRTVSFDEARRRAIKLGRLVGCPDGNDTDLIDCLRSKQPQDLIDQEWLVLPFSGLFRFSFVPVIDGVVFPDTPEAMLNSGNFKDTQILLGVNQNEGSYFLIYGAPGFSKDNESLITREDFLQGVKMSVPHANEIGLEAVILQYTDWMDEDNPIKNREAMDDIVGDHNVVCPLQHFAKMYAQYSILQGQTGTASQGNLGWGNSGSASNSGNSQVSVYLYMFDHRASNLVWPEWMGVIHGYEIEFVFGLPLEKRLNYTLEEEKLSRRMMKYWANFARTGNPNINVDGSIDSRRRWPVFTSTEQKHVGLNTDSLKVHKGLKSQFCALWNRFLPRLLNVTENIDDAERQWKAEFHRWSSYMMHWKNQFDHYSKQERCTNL

Compound	IC50 [µM]
COc1ccc2nc3c(c(NCCCCCCCN(CC(=O)NCCc4c[nH]c5ccc(OC)cc45)C(=O)/C=C/c4ccc(O)c(OC)c4)c2c1)CCCC3	0.00837
